Assays:
[1] = read-out: IC50 for RLK; cited from earlier work
[2] = Time to LOAC post-randomization (Cox regression, Kaplan-Meier); assay type: in vivo, human
Excerpt: Time to LOAC post-randomization was to be analyzed using a Cox regression model with treatment (Cox 1972), baseline IgE strata, and region (pooled country) as covariates. The Kaplan-Meier (KM) method was to be used to estimate the probabilities of the event at specific time points for each treatment group (Kaplan and Meier 1958). Nominal p-value from log-rank test stratified by baseline IgE strata and region was also to be provided.

[3] = Asthma Daytime Symptom Diary (ADSD) score; assay type: in vivo, human; conditions: for LS mean difference versus placebo, ADSD symptom score: Week 12
Excerpt: (§1) ADSD and ANSD are PRO measures developed by the PRO Consortium′ Asthma Working Group. Both instruments have been designed to measure asthma symptoms in adult and adolescent (12 years of age and older) patients diagnosed with mild to severe asthma. ADSD and ANSD assess asthma severity based on patient self-report of asthma core symptoms.
(§2) Other efficacy endpoints included: • Change from baseline in pre- and post-bronchodilator FEV1 and other lung function measurement (peak expiratory flow (PEF), forced vital capacity (FVC), forced expiratory flow (FEF) 25-75%) at each spirometry endpoint. • Asthma Control Questionnaire-5 (ACQ-5) score change from baseline at EOT and at each assessment time point. • Asthma Quality of Life Questionnaire with Standardized Activities (AQLQ(S)) Self-Administered score change from baseline at EOT and at each assessment time point. • Change from baseline at EOT and change from baseline at each week for asthma symptom scores in the morning and evening (ADSD and ANSD). Questionnaire was to be administered daily and score averaged weekly for analysis. • Change from baseline at EOT and change from baseline at each week in number of inhalations/day of albuterol or levalbuterol for symptom relief.
(§3) The ADSD and ANSD are PRO measures developed by the PRO Consortium′ Asthma Working Group. Both instruments have been designed to measure asthma symptoms in adult and adolescent (12 years of age and older) patients diagnosed with mild to severe asthma. ADSD and ANSD assess asthma severity based on patient self-report of asthma core symptoms, i.e., difficulty of breathing; wheezing; shortness of breath; chest tightness; chest pain; and cough. Patients were asked to complete the ADSD every night before they went to bed, thinking about their asthma symptoms on that day, from when they got up this morning until then; the ANSD when getting up, thinking about their asthma symptoms from the previous night from when they went to bed until then.
(§4) Both the ADSD and ANSD are composed of 6 items rated using an 11-point NRS that ranges from 0=None to 10=As bad as you can imagine (Gater et al. 2016). The participants were to record their daytime and nighttime asthma symptoms in an electronic diary, once in the evening and once in the morning, respectively. The participants were to complete the ADSD and the ANSD.

[4] = ITP, cited from earlier work
[5] = tested on: 251 kinases sharing a common cysteine in their active site; conditions: cited from earlier work
[6] = Asthma Nighttime Symptom Diary (ANSD) score; assay type: in vivo, human; conditions: for LS mean difference versus placebo, ANSD symptom score: Week 12
Excerpt: as §1, §2, §3, §4

ERBB4 = conditions: cited from earlier work
[7] = 400 mg BID cohort, N = 32, mITT
[8] = 400 mg TID cohort, N = 64, mITT
[9] = both cohorts, Week 12, all components

## CC(C)(C=C(C#N)C(=O)N1CCC[C@@H](n2nc(-c3ccc(Oc4ccccc4)cc3F)c3c(N)ncnc32)C1)N1CCN(C2COC2)CC1 (mixture of isomers) [rilzabrutinib, (R)-2-[3-[4-amino-3-(2-fluoro-4-phenoxy-phenyl)pyrazolo[3,4-d]pyrimidin-1-yl]piperidine-1-carbonyl]-4-methyl-4-[4-(oxetan-3-yl)piperazin-1-yl]pent-2-enenitrile]
[1]
  IC50: 1.2 nM
[2]; [7]
  Number of participants censored: 20
  Number of participants with LOAC (time-to-LOAC analysis): 12
  Percentage of participants censored: (62.5)
  Percentage of participants with LOAC (time-to-LOAC analysis): (37.5)
[2]; 400 mg BID cohort, mITT, 95% CI (0.059, 0.309)
  Probability of LOAC at Week 4: 0.161
[2]; 400 mg BID cohort, mITT, 95% CI (0.125, 0.429)
  Probability of LOAC at Week 9: 0.265
[2]; 400 mg BID cohort, mITT, 95% CI (0.243, 0.607)
  Probability of LOAC at Week 12: 0.432
[2]; 400 mg BID cohort, mITT, 95% CI (0.352, 1.595)
  HR vs. placebo, time to LOAC: 0.750
[2]; 400 mg BID cohort, mITT, 95% CI (19.0, 84.0)
  Q1 of time to LOAC: 55.0 days
[2]; [8]
  Number of participants censored: 52
  Number of participants with LOAC (time-to-LOAC analysis): 12
  Percentage of participants censored: (81.3)
  Percentage of participants with LOAC (time-to-LOAC analysis): (18.8)
[2]; 400 mg TID cohort, mITT, 95% CI (0.001, 0.080)
  Probability of LOAC at Week 4: 0.017
[2]; 400 mg TID cohort, mITT, 95% CI (0.077, 0.261)
  Probability of LOAC at Week 9: 0.156
[2]; 400 mg TID cohort, mITT, 95% CI (0.117, 0.325)
  Probability of LOAC at Week 12: 0.211
[2]; 400 mg TID cohort, mITT, 95% CI (0.327, 1.408)
  HR vs. placebo, time to LOAC: 0.679
[3]; 400 mg BID
  LS mean ADSD change from baseline at Week 12: −0.27
[3]; 400 mg BID, 95% CI −1.03, 0.26, nominal p=0.2377
  LS mean difference versus placebo, ADSD symptom score: −0.39
[3]; 400 mg TID
  LS mean ADSD change from baseline at Week 12: −0.43
[3]; 400 mg TID, 95% CI −1.15, 0.14, nominal p=0.1276
  LS mean difference versus placebo, ADSD symptom score: −0.50
[3]; [9]
  ADSD symptom score (in words): improvement in ADSD and ANSD symptom score
[4]; Phase 1/2
  treatment-emergent serious adverse events (TESAEs): no treatment-emergent serious adverse events (TESAEs) observed
[4]; treatment for at least 12 weeks
  participants achieving the primary response endpoint: 50%
[5]; 1 μM, panel of 251 kinases
  number of kinases inhibited (>90% inhibition): 6 kinases
[5]; in comparison to first and second generation BTKi
  cross-reactivity with other molecules: minimal cross-reactivity
[6]; 400 mg BID
  LS mean ANSD change from baseline at Week 12: −0.35
[6]; 400 mg BID, 95% CI −1.33, −0.03, nominal p=0.0390
  LS mean difference versus placebo, ANSD symptom score: −0.68
[6]; 400 mg TID
  LS mean ANSD change from baseline at Week 12: −0.48
[6]; 400 mg TID, 95% CI −1.13, 0.06, nominal p=0.0758
  LS mean difference versus placebo, ANSD symptom score: −0.54
[6]; [9]
  ANSD symptom score (in words): improvement in ADSD and ANSD symptom score
ERBB4
  IC50: 11 nM
